Assay results published in US11072811B2, “Substrates for covalent tethering of proteins to functional groups or solid surfaces” (PROMEGA CORPORATION, priority 2013, dated 2021).
“Also recorded” adds a separate entry of the source.

Tests used:
[1] = molecular target: T1, NanoLuc-DHFR fusion protein (Homo sapiens, UniProt P00374); assay: Pull-down of NanoLuc-DHFR fusion from living cells onto HALOTAG protein beads; assay type: cell-based; details: HEK293 cells, 10 uM conjugate, 2 h binding, 45 min capture, release with 150 μM methotrexate; FIG. 4
T1 construct: expressed in transfected cells; host or cells: HEK293
T1 sequence (P00374 1-187): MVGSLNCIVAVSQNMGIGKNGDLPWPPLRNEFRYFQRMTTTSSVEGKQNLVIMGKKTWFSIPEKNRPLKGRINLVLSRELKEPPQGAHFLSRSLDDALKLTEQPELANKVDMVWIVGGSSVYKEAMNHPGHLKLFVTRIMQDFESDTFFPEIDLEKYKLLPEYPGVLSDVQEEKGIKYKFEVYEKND
Protocol: HEK293 cells were plated and transfected using PEI with plasmid DNA encoding a NANOLUC-DHFR fusion in wells of a 96-well plate. The DNA was diluted 1:50 with a promoterless carrier DNA plasmid (pCI) to a final concentration of 80 ng total DNA per well. Twenty-four hours post-transfection, cells were serum starved for additional 24 hours and then treated with […] 10 uM PBI-4848 or PBI-5015 while control cells were not treated with the conjugated drug. Following equilibration binding of 2 h, the media was removed, and the cells quickly washed with PBS and lysed in detergent-based lysis buffer for 10 min. Cell lysates were then transferred to wells of a 96-well plate containing 0.5 μl settled paramagnetic HALOTAG protein beads and incubated with shaking for 45 min. Following binding, the unbound fraction was removed, the HALOTAG protein paramagnetic beads washed, 150 μM unconjugated methotrexate added, and the captured NANOLUC:DHFR specifically released from the beads by competition with the unconjugated methotrexate for 60 min. The released NANOLUC:DHFR (+PBI-5015 or +PBI-4848) and control samples were detected by NANOGLO luciferase detection reagent.

[2] = test system: HaloTag® protein; assay: Binding efficiency to HaloTag protein in cells (chase with fluorescent HaloTag ligand, SDS-PAGE); assay type: cell-based; details: 10 μM
Protocol: b) Binding efficiency to HaloTag® protein in cells was measured by adding the methotrexate-chloroalkane conjugates to cells expressing a HaloTag® protein to a final concentration of 10 μM. Following 0-120 mins of binding, the reactions were chased with 5 μM fluorescent HaloTag® ligand. Unbound HaloTag® protein was detected through binding to the fluorescent HaloTag® ligand followed by cell lysis, analysis on a SDS-PAGE gel and detection on a fluorescent gel scanner.
b) Binding efficiency to HaloTag® protein in cells was measured by adding the dexamethasone-chloroalkane conjugates to cells expressing a HaloTag® protein to a final concentration of 10 μM. Following 0-60 mins of binding, the reaction was chased with 5 μM fluorescent HaloTag ligand. Unbound HaloTag® protein was detected through binding to the fluorescent HaloTag® ligand followed by cell lysis, analysis on SDS-PAGE gel and detection on a fluorescent gel scanner.

[3] = test system: HaloTag® protein; assay: Binding efficiency to HaloTag protein in lysate (chase with fluorescent HaloTag ligand, SDS-PAGE); details: 1 μM, 0-60 min binding; for labeling kinetics / binding efficiency to HaloTag protein in lysate: methotrexate-chloroalkane conjugates, FIG. 3A
Protocol: (§1) a) Binding efficiency to HaloTag® protein in lysate was measured by adding the methotrexate-chloroalkane conjugates to lysate from cells expressing a HaloTag® protein to a final concentration of 1 μM. Following 0-60 mins of binding, the reactions were chased with 1 μM fluorescent HaloTag® ligand. Unbound HaloTag® protein was detected through binding to the fluorescent HaloTag® ligand followed by analysis on SDS-PAGE gel and detection on a fluorescent gel scanner.
as §1, with “adding the dexamethasone-chloroalkane conjugates to” for “adding the methotrexate-chloroalkane conjugates to”, “the fluorescent HaloTag ligand followed” for “the fluorescent HaloTag® ligand followed”

[4] = molecular target: T2, glucocorticoid receptor (GR) (Homo sapiens, UniProt P04150); assay: Glucocorticoid receptor competitor assay (fluorescence polarization); assay type: binding; details: dexamethasone-chloroalkane conjugates; FIG. 7
T2 construct: purchased Life Technology
T2 sequence (P04150 1-777): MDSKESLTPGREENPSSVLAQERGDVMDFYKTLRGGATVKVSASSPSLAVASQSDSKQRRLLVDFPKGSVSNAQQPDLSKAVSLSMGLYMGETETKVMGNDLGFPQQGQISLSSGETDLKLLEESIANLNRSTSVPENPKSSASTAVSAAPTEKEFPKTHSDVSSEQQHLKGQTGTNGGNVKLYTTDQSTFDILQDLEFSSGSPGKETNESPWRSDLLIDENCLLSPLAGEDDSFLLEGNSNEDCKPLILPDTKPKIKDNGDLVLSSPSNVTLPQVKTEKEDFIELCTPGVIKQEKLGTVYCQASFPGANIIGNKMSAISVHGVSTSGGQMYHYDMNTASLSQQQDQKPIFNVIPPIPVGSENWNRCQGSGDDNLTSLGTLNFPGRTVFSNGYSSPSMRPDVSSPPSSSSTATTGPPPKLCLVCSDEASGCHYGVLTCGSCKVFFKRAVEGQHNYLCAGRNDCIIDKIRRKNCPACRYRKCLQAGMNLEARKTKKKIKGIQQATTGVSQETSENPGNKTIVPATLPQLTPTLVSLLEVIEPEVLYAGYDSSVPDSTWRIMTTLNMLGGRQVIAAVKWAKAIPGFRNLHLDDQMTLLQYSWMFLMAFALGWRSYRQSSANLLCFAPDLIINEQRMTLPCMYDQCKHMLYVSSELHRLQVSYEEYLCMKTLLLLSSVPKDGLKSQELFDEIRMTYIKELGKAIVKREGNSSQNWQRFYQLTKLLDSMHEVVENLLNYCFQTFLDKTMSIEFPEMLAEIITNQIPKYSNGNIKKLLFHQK
Excerpt: c) Binding efficiency to the target glucocorticoid receptor (GR) was done using the glucocorticoid receptor competitor assay (Life Technology) as recommended by the manufacturer.

[5] = molecular target: T3, NanoLuc:GR fusion (Homo sapiens, UniProt P04150); assay: Pull-down of NanoLuc:GR fusion from live cells onto HaloTag protein beads; assay type: cell-based; details: HEK293 cells, 10 μM conjugate, 2 h binding, 45 min capture, release with 150 μM Dexamethasone; FIG. 8
T3 construct: expressed in transfected cells; host or cells: HEK293
T3 sequence (P04150 1-777): T2 sequence (P04150 1-777)
Protocol: HEK293 cells were plated and transfected using PEI with plasmid DNA encoding NanoLuc:GR fusion in wells of a 96-well plate. The DNA was diluted 1:50 with a promoterless carrier DNA plasmid (pCI neo) to a final concentration of 80 ng total DNA per well. Twenty-four hours post-transfection, cells were serum starved for additional 24 hours then incubated with a final concentration of 10 μM PBI-4980 or PBI-4025 while control cells were not treated with the conjugated drug. […] The released NanoLuc:GR (+PBI-4980 or +PBI-4025) and control samples were detected by using the NanoGlo® assay reagent (Promega Corp).

[6] = methotrexate-chloroalkane conjugates, 0-120 min binding, FIG. 3B

Row | SMILES | pull-down of Nluc:DHFR fusion from living cells [1] | cell permeability/binding efficiency to HaloTag protein in cells [2, 6] | labeling kinetics / binding efficiency to HaloTag protein in lysate [3] | affinity / binding efficiency to glucocorticoid receptor [4] | efficiency of Nluc:GR fusion pull down from live cells [5] | cell permeability/binding efficiency to HaloTag protein in cells ([2]; dexamethasone-chloroalkane conjugates, 0-60 min binding, FIG. 6B) | binding kinetics to HaloTag protein in lysate ([3]; dexamethasone-chloroalkane conjugates, FIG. 6A)
1 | CN(Cc1cnc2nc(N)nc(N)c2n1)c1ccc(C(=O)NC(CCC(=O)NCCCCCNC(=O)OCCOCCOCCOC(=O)NCCOCCOCCCCCCCl)C(=O)O)cc1 (centres unmarked) [PBI-5015] | efficiently pulled down | good cell permeability and binding efficiency | fast labeling kinetics | – | – | – | –
2 | C[C@@H]1CC2C3CCC4=CC(=O)C=C[C@]4(C)[C@@]3(F)[C@@H](O)C[C@]2(C)[C@@]1(O)C(=O)NCCOCCOCCOCCOCCC(=O)NCCOCCOCCCCCCCl (some centres unmarked) [PBI-4025] | – | – | – | highest affinity; also recorded: best binding efficiency; also recorded: higher affinity | – | – | –
3 | C[C@@H]1CC2[C@@H]3CCC4=CC(=O)C=C[C@]4(C)[C@@]3(F)[C@@H](O)C[C@]2(C)[C@@]1(O)C(=O)NCCCCCNC(=O)OCCOCCOCCOC(=O)NCCOCCOCCCCCCCl (some centres unmarked) [PBI-4980, Dexamethasone Carbamate Chloroalkane] | – | – | – | best binding efficiency | significantly higher than via PBI-4025 | best cell permeability/binding efficiency | faster binding kinetics
4 | CN(Cc1cnc2nc(N)nc(N)c2n1)c1ccc(C(=O)NC(CCC(=O)NCCOCCOCCCCCCCl)C(=O)O)cc1 (centres unmarked) [PBI-4848] | only PBI-5015 efficiently pulled down | best cell permeability/binding efficiency; also recorded: higher cell permeability | fast labeling kinetics | – | – | – | –
